From ChEMBL document CHEMBL1147537, “N-Benzoyl amino acids as ICAM/LFA-1 inhibitors. Part 2: structure-activity relationship of the benzoyl moiety” (Bioorg Med Chem Lett, 2004)
Non-standard residues stand in square brackets, D forms with d. Residues, ends and D or L forms follow the SMILES beside them. ξ: configuration not given here. ξPip = O=C(O)C1CCCCN1

Each compound was assayed against Intercellular adhesion molecule (ICAM-1), Integrin alpha-L/beta-2 (Homo sapiens, UniProt P05107+P05362+P20701) (assay: Inhibitory activity against association of LFA-1 with intercellular adhesion molecule 1).
Format: protein-complex assay

Sequence of Intercellular adhesion molecule (ICAM-1), Integrin alpha-L/beta-2 (P20701 whole entry): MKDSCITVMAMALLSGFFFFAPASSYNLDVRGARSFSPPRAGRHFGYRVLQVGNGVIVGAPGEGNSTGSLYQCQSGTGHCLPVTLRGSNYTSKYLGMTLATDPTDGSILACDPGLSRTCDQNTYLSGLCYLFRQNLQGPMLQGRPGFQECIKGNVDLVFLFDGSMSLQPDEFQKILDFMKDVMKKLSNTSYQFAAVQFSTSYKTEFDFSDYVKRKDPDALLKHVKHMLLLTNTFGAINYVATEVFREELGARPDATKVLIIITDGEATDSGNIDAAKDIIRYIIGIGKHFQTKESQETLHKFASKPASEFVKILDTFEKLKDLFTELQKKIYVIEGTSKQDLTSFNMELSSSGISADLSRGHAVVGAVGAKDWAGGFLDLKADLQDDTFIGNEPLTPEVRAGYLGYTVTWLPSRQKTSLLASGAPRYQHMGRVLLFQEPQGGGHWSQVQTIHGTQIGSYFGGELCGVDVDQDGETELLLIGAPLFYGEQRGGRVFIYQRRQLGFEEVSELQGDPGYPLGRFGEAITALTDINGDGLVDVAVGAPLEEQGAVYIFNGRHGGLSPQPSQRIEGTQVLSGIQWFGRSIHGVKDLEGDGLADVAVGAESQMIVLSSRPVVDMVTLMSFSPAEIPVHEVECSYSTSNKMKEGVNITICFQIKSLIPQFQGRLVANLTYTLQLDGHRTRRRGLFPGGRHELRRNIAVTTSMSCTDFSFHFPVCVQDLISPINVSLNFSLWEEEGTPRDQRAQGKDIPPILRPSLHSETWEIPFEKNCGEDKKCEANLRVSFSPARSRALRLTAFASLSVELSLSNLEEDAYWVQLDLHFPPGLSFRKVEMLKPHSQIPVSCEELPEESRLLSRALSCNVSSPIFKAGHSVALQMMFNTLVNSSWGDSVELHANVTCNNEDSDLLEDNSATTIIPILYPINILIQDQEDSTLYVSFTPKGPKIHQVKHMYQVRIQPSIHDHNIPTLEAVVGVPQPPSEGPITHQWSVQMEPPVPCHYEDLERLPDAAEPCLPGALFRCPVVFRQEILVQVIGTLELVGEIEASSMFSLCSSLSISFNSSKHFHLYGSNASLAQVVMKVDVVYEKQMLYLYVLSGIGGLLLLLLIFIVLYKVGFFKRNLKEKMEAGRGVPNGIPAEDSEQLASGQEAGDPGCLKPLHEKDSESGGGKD
Sequence of Intercellular adhesion molecule (ICAM-1), Integrin alpha-L/beta-2 (P05362 whole entry): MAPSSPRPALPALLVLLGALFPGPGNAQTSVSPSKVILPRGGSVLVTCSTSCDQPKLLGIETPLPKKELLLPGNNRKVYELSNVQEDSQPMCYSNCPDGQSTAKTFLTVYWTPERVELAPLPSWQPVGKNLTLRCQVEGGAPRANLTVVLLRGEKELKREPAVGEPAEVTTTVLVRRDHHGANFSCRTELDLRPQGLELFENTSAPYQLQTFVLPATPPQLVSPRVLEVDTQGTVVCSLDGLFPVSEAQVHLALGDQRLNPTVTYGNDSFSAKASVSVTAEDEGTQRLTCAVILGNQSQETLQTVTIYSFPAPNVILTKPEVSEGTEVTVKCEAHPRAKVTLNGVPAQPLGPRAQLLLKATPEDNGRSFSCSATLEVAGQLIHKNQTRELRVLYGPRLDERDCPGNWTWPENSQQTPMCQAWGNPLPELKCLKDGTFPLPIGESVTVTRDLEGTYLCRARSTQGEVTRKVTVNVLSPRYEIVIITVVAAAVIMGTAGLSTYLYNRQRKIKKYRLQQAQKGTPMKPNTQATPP
Sequence of Intercellular adhesion molecule (ICAM-1), Integrin alpha-L/beta-2 (P05107 whole entry): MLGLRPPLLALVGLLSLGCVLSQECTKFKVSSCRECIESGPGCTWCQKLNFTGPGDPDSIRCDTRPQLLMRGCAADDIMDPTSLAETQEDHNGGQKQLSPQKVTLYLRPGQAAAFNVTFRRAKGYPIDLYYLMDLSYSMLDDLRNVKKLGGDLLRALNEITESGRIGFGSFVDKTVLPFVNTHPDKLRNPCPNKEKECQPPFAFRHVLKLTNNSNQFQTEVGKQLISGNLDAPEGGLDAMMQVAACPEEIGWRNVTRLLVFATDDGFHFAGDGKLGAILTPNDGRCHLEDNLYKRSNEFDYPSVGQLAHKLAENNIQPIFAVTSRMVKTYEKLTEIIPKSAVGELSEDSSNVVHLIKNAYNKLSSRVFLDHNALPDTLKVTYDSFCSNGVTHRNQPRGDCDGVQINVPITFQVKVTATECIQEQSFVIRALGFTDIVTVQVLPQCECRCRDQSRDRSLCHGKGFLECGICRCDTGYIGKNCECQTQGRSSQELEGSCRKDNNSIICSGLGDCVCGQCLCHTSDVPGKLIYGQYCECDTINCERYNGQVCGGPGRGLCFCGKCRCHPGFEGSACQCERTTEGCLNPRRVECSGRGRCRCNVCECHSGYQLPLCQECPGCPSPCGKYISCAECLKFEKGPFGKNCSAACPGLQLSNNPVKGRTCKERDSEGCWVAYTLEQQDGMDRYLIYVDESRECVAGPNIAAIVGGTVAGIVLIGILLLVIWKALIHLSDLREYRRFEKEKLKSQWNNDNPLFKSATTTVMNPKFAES

Q: Which IC50 does the source give for `O=C(N[C@@H](Cc1c[nH]c2ccccc12)C(=O)O)c1c(Cl)cccc1Cl` here?
A: 0.6 µM

Q: How did the IC50 turn out when `O=C(N[C@@H](Cc1c[nH]c2ccccc12)C(=O)O)c1ccccc1-c1ccccc1` was run?
A: > 100 µM

Q: How did the IC50 turn out when `O=C(N[C@@H](Cc1c[nH]c2ccccc12)C(=O)O)c1ccc[n+]([O-])c1` was run?
A: > 1000 µM

Q: For `O=C(N[C@@H](Cc1c[nH]c2ccccc12)C(=O)O)c1c(F)cccc1F`, which IC50 is on record?
A: 0.46 µM

Q: How did the IC50 turn out when `NC(=O)C[C@H](NC(=O)c1c(F)cccc1F)C(=O)O` was run?
A: 0.23 µM

Q: With `O=C(N[C@@H](Cc1c[nH]c2ccccc12)C(=O)O)c1cc(F)ccc1F` as the compound, how does the IC50 read?
A: 11.5 µM

Q: For `Cc1cccc(C)c1C(=O)N[C@@H](Cc1cnc[nH]1)C(=O)O`, which IC50 is on record?
A: 1.77 µM

Q: With `O=C(N[C@@H](Cc1c[nH]c2ccccc12)C(=O)O)c1ccccc1Cl` as the compound, how does the IC50 read?
A: 1.5 µM

Q: For `COc1cccc(C(=O)N[C@@H](Cc2c[nH]c3ccccc23)C(=O)O)c1`, which IC50 is on record?
A: 438 µM

Q: With `O=C(O)[C@H](Cc1c[nH]c2ccccc12)NC(=O)N1CCCCC1` as the compound, how does the IC50 read?
A: 380 µM

Q: With `Cc1cccc(Cl)c1C(=O)N[C@@H](Cc1c[nH]c2ccccc12)C(=O)O` as the compound, how does the IC50 read?
A: 0.64 µM

Q: Which IC50 does the source give for `NC(=O)C[C@H](NC(=O)c1c(Cl)cccc1Cl)C(=O)O` here?
A: 0.17 µM

Q: How did the IC50 turn out when `COc1ccc(Br)c(C(=O)N[C@@H](Cc2c[nH]c3ccccc23)C(=O)O)c1` was run?
A: 9 µM

Q: How did the IC50 turn out when `O=C(N[C@@H](Cc1c[nH]c2ccccc12)C(=O)O)c1cccc(O)c1` was run?
A: > 100 µM

Q: How did the IC50 turn out when `Cc1ccc(C(=O)N[C@@H](Cc2c[nH]c3ccccc23)C(=O)O)cc1` was run?
A: 129 µM

Q: `Cc1cccc(C(=O)N[C@@H](Cc2c[nH]c3ccccc23)C(=O)O)c1` was tested. Which IC50 did it give?
A: 295 µM

Q: How did the IC50 turn out when `O=C(N[C@@H](Cc1c[nH]c2ccccc12)C(=O)O)C1CCCCN1` (stereo partly drawn) (H-[ξPip]-Trp-OH) was run?
A: > 1000 µM

Q: For `O=C(N[C@@H](Cc1c[nH]c2ccccc12)C(=O)O)c1cccnc1`, which IC50 is on record?
A: 112 µM

Q: For `O=C(N[C@@H](Cc1c[nH]c2ccccc12)C(=O)O)c1cccc(I)c1`, which IC50 is on record?
A: > 100 µM

Q: `O=C(N[C@@H](Cc1c[nH]c2ccccc12)C(=O)O)c1cnccc1Cl` was tested. Which IC50 did it give?
A: 32.6 µM

Q: `Cc1cccc(C)c1C(=O)N[C@@H](Cc1c[nH]c2ccccc12)C(=O)O` was tested. Which IC50 did it give?
A: 1.1 µM

Q: With `O=C(N[C@@H](Cc1c[nH]c2ccccc12)C(=O)O)c1ccc(-c2ccccc2)cc1` as the compound, how does the IC50 read?
A: > 100 µM

Q: Which IC50 does the source give for `O=C(N[C@@H](Cc1c[nH]c2ccccc12)C(=O)O)c1ccccc1I` here?
A: 8.9 µM

Q: `O=C(N[C@@H](Cc1c[nH]c2ccccc12)C(=O)O)C1CCNCC1` was tested. Which IC50 did it give?
A: > 1000 µM

Q: For `O=C(N[C@@H](Cc1c[nH]c2ccccc12)C(=O)O)c1cc(F)cc(F)c1`, which IC50 is on record?
A: 89.7 µM

Q: Which IC50 does the source give for `O=C(N[C@@H](Cc1cnc[nH]1)C(=O)O)c1c(Cl)cccc1Cl` here?
A: 0.16 µM

Q: How did the IC50 turn out when `O=C(N[C@@H](Cc1c[nH]c2ccccc12)C(=O)O)c1cc(Br)ccc1Cl` was run?
A: 17.9 µM

Q: `O=C(N[C@@H](Cc1c[nH]c2ccccc12)C(=O)O)c1ccccc1F` was tested. Which IC50 did it give?
A: 7.4 µM

Q: For `NC(=O)C[C@H](NC(=O)c1c(F)cccc1Cl)C(=O)O`, which IC50 is on record?
A: 0.11 µM

Q: `O=C(N[C@@H](Cc1c[nH]cn1)C(=O)O)c1c(F)cccc1F` was tested. Which IC50 did it give?
A: 0.2 µM

Q: Which IC50 does the source give for `O=C(N[C@@H](Cc1c[nH]c2ccccc12)C(=O)O)C1CCCCC1` here?
A: 61 µM

Q: `O=C(N[C@@H](Cc1c[nH]c2ccccc12)C(=O)O)c1ccc(Cl)cc1Cl` was tested. Which IC50 did it give?
A: 8.4 µM

Q: How did the IC50 turn out when `O=C(N[C@@H](Cc1c[nH]c2ccccc12)C(=O)O)c1ccccn1` was run?
A: > 100 µM

Q: `O=C(N[C@@H](Cc1c[nH]c2ccccc12)C(=O)O)c1cccc(Cl)c1` was tested. Which IC50 did it give?
A: 295 µM

Q: How did the IC50 turn out when `O=C(N[C@@H](Cc1c[nH]c2ccccc12)C(=O)O)c1ccc(F)cc1` was run?
A: 136 µM

Q: For `O=C(N[C@@H](Cc1c[nH]c2ccccc12)C(=O)O)c1cc(Br)ccc1Br`, which IC50 is on record?
A: 24.3 µM

Q: Which IC50 does the source give for `Cc1ccccc1C(=O)N[C@@H](Cc1c[nH]c2ccccc12)C(=O)O` here?
A: 4 µM

Q: With `O=C(N[C@@H](Cc1c[nH]c2ccccc12)C(=O)O)c1c(F)cccc1Cl` as the compound, how does the IC50 read?
A: 0.25 µM

Q: For `O=C(N[C@@H](Cc1c[nH]c2ccccc12)C(=O)O)c1cccc(Cl)c1Cl`, which IC50 is on record?
A: 6.3 µM

Q: How did the IC50 turn out when `O=C(N[C@@H](Cc1c[nH]c2ccccc12)C(=O)O)c1ccc(I)cc1` was run?
A: 92 µM

Q: For `O=C(N[C@@H](Cc1c[nH]c2ccccc12)C(=O)O)c1cccc(Br)c1`, which IC50 is on record?
A: > 100 µM

Q: Which IC50 does the source give for `O=C(N[C@@H](Cc1c[nH]c2ccccc12)C(=O)O)c1ccc(Br)cc1` here?
A: 61 µM

Q: With `COc1ccccc1C(=O)N[C@@H](Cc1c[nH]c2ccccc12)C(=O)O` as the compound, how does the IC50 read?
A: 225 µM

Q: `O=C(N[C@@H](Cc1c[nH]c2ccccc12)C(=O)O)C1CCCNC1` (stereo partly drawn) was tested. Which IC50 did it give?
A: > 1000 µM

Q: Which IC50 does the source give for `O=C(N[C@@H](Cc1c[nH]c2ccccc12)C(=O)O)c1ccccc1O` here?
A: > 500 µM

Q: Which IC50 does the source give for `CC1CCCCC1C(=O)N[C@@H](Cc1c[nH]c2ccccc12)C(=O)O` (stereo partly drawn) here?
A: 28 µM

Q: How did the IC50 turn out when `O=C(N[C@@H](Cc1c[nH]c2ccccc12)C(=O)O)c1ccc(O)cc1` was run?
A: > 100 µM

Q: How did the IC50 turn out when `O=C(N[C@@H](Cc1c[nH]c2ccccc12)C(=O)O)c1ccc(Cl)c(Cl)c1` was run?
A: 170 µM

Q: Which IC50 does the source give for `O=C(N[C@@H](Cc1c[nH]c2ccccc12)C(=O)O)c1cccc(F)c1F` here?
A: 21.6 µM

Q: How did the IC50 turn out when `O=C(N[C@@H](Cc1c[nH]c2ccccc12)C(=O)O)c1c(F)cccc1Br` was run?
A: 0.43 µM

Q: With `O=C(N[C@@H](Cc1c[nH]c2ccccc12)C(=O)O)c1cccc(F)c1` as the compound, how does the IC50 read?
A: 148 µM

Q: `O=C(N[C@@H](Cc1c[nH]c2ccccc12)C(=O)O)c1ccc(Cl)cc1` [BENZOTRIPT] was tested. Which IC50 did it give?
A: 169 µM

Q: With `O=C(N[C@@H](Cc1c[nH]c2ccccc12)C(=O)O)c1cncc(Br)c1` as the compound, how does the IC50 read?
A: > 200 µM

Q: `O=C(N[C@@H](Cc1c[nH]c2ccccc12)C(=O)O)c1ccc([N+](=O)[O-])cc1Cl` was tested. Which IC50 did it give?
A: 5.2 µM

Q: With `O=C(N[C@@H](Cc1c[nH]c2ccccc12)C(=O)O)c1cccnc1Cl` as the compound, how does the IC50 read?
A: 1.2 µM

Q: How did the IC50 turn out when `Nc1ccc(C(=O)N[C@@H](Cc2c[nH]c3ccccc23)C(=O)O)c(Cl)c1` was run?
A: 2 µM

Q: `O=C(N[C@@H](Cc1c[nH]c2ccccc12)C(=O)O)c1ccccc1` was tested. Which IC50 did it give?
A: 127 µM

Q: Which IC50 does the source give for `COc1ccc(C(=O)N[C@@H](Cc2c[nH]c3ccccc23)C(=O)O)cc1` here?
A: 178 µM

Q: How did the IC50 turn out when `O=C(N[C@@H](Cc1c[nH]c2ccccc12)C(=O)O)c1ccncc1` was run?
A: 92 µM

Q: For `O=C(N[C@@H](Cc1c[nH]cn1)C(=O)O)c1c(F)cccc1Cl`, which IC50 is on record?
A: 0.13 µM

Q: Which IC50 does the source give for `O=C(N[C@@H](Cc1c[nH]c2ccccc12)C(=O)O)c1cc(Cl)cc(Cl)c1` here?
A: 200 µM

Q: How did the IC50 turn out when `O=C(N[C@@H](Cc1c[nH]c2ccccc12)C(=O)O)c1cc(Br)ccc1O` was run?
A: > 500 µM

Q: `O=C(N[C@@H](Cc1c[nH]c2ccccc12)C(=O)O)c1cc(Cl)ccc1Cl` was tested. Which IC50 did it give?
A: 6.6 µM
